Results reported in US20260374766A1, “METHODS FOR TREATING CANCER” (Antares Therapeutics, Inc., priority 2022, published 2026).
Like-named read-outs stand apart in the source and are kept apart here.

Experiments:
[1] = biological target: p53 Y220C (Homo sapiens, UniProt P04637, Y220C); experiment: Luciferase Reporter Assay (Luc), p53 response element, NClH1299 cells with inducible p53 Y220C; type: cell-based; conditions: luciferase reporter, NClH1299 inducible p53 Y220C, 6 hour; for Emax: 10 uM tool compound as positive control; for AC50: read-out: Luc P53 Y220C AC50
How it was run: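 24 h dox pre-induction (0.5 ug/mL), then 6 h compound; One-Glo luminescent read.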

[2] = biological target: T1, p53 Y220C mutant protein (amino acid residues 94-293) (Homo sapiens, UniProt P04637, Y220C); experiment: Surface Plasmon Resonance (SPR) assay, Kd_kinetic; type: binding; conditions: read-out: SPR P53 Y220C KD kinetic
T1 construct: p53 Y220C mutant protein (amino acid residues 94-293)
How it was run: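 Binding measured by SPR on a Biacore 8K in running buffer of 50 mM Tris pH 7.5, 100 mM NaCl, 1 mM DTT, 0.01% Brij35, 0.05% Tween-20, 1% DMSO.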

[3] = tested on: H1299 p53 Y220C; experiment: Cell Proliferation Assay (CellTiter-Glo, CTG), H1299 p53 Y220C (NClH1299-inducible p53 Y220C); type: cell-based; conditions: Homo sapiens, NCI-H1299, 120 h, CellTiter-Glo, H1299 p53 Y220C, 5 days
How it was run: (§1)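 Cells seeded at 250-500 per well and exposed to compound for 5 days. Viability read by CellTiter-Glo luminescence after 10 min at room temperature; IC50 calculated. H1299 lines carry Tet-One inducible p53 mutant constructs introduced by lentiviral transduction.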

[4] = biological target: T1, p53 Y220C mutant protein (amino acid residues 94-293); experiment: Thermal Shift Assay (TSA), dTM; type: binding; conditions: thermal shift; for ΔTm at 10 µM: 10 uM compound, read-out: TSA P53 Y220C dTM (10 uM); for ΔTm at 100 µM: 100 uM compound, read-out: TSA P53 Y220C dTM (100 uM)
How it was run: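 Differential scanning fluorimetry with Sypro Orange on 5 μM p53 Y220C residues 94-293, compound tested at 10 μM or 100 μM after 3 hours at 20 °C; buffer 20 mM HEPES, pH7.4, 100 mM NaCl, 1% DMSO.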

[5] = tested on: H1299 p53 R273H; experiment: Cell Proliferation Assay (CellTiter-Glo, CTG), H1299 p53 R273H (NClH1299-inducible p53 R273H); type: cell-based; conditions: Homo sapiens, NCI-H1299, 120 h, CellTiter-Glo, H1299 p53 R273H, 5 days
How it was run: as §1

[6] = tested on: NUGC3 p53 Y220C; experiment: Cell Proliferation Assay (CellTiter-Glo, CTG), NUGC3 p53 Y220C; type: cell-based; conditions: Homo sapiens, NUGC-3, 120 h, CellTiter-Glo, NUGC3 p53 Y220C, 5 days
How it was run: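 NClH1299 lines stably transduced with Tet-inducible p53 Y220C or R273H, plus NUGC3, were treated with compound for 5 days at 250-500 cells/well. IC50 derived from CellTiter-Glo luminescent signal after 10 min room-temperature incubation.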

Emax [1] [%]	AC50 [1] [µM]	Kd ([2]; SPR, kinetic KD, p53 Y220C) [µM]	IC50 [3] [µM]	ΔTm at 10 µM [4] [°C]	ΔTm at 100 µM [4] [°C]	IC50 [5] [µM]	Kd [2] [µM]	SMILES	IC50 [6] [µM]
80 to 90	< 0.75	< 0.01	< 0.75	≥ 10	≥ 10	8 to 10		CCOc1cc(C(=O)NC)ccc1NCC#Cc1nc2c(N[C@@H]3CCN(C)C[C@@H]3F)cccn2c1SC(F)(F)F [Example 127]	< 0.75
80 to 90	< 0.75	< 0.01	0.75 to 1.5	≥ 10	≥ 10	< 5		COc1cc2n[nH]cc2cc1NCC#Cc1nc2c(N[C@@H]3CCN(C)C[C@@H]3F)cccn2c1SC(F)(F)F [Example 128]	0.75 to 1.5
80 to 90	< 0.75	< 0.01	< 0.75	≥ 10	≥ 10	5 to 8		CNC(=O)c1ccc(NCC#Cc2nc3c(NC4CCN(C)CC4)cccn3c2SC(F)(F)F)c(OC)c1 [Example 129]	< 0.75
70 to 80	< 0.75	< 0.01	< 0.75	≥ 10	≥ 10	5 to 8		CNC(=O)c1ccc(NCC#Cc2nc3c(N[C@H]4C[C@@H]5CC[C@H]([C@H]4F)N5C)cccn3c2SC(F)(F)F)c(OC)c1 [Example 130]	< 0.75
70 to 80	< 0.75	< 0.01	< 0.75	≥ 10	≥ 10	5 to 8		COc1cc(S(C)(=O)=O)ccc1NCC#Cc1nc2c(N[C@@H]3C[C@H]4CC[C@H](N4)[C@@H]3F)cccn2c1SC(F)(F)F [Example 131]	< 0.75
> 90	< 0.75	< 0.01	< 0.75	≥ 10		8 to 10		CNC(=O)c1ccc(NCC#Cc2cc3c(N[C@@H]4CCN(C)C[C@@H]4F)cccn3c2SC(F)F)c(OC)c1 [Example 135, 4-[(3-{3-[(difluoromethyl)sulfanyl]-8-{[(3S,4R)-3-fluoro-1-methylpiperidin-4-yl]amino}indolizin-2-yl}prop-2-yn-1-yl)amino]-3-methoxy-N-methylbenzamide]	< 0.75
70 to 80	1.5 to 3	< 0.01	> 3	5 to 10	≥ 10	8 to 10		CNC(=O)c1cnc(NCC#Cc2nc3c(N[C@@H]4CCN(C)C[C@@H]4F)cccn3c2SC(F)(F)F)c(OC)c1 [Example 136]	> 3
80 to 90	< 0.75	< 0.01	< 0.75	≥ 10	≥ 10	8 to 10		COc1ccc(C(N)=O)cc1NCC#Cc1nc2c(N[C@@H]3CCN(C)C[C@@H]3F)cccn2c1SC(F)(F)F [Example 138]	< 0.75
> 90	< 0.75	< 0.01	< 0.75	≥ 10		5 to 8		CNC(=O)c1ccc(NCC#Cc2cn3c(N[C@@H]4CCN(C)C[C@@H]4F)cccc3c2SC(F)(F)F)c(OC)c1 [Example 139, 4-{[3-(5-{[(3S,4R)-3-fluoro-1-methylpiperidin-4-yl]amino}-1-[(trifluoromethyl)sulfanyl]indolizin-2-yl)prop-2-yn-1-yl]amino}-3-methoxy-N-methylbenzamide]	< 0.75
80 to 90	< 0.75	< 0.01	< 0.75	≥ 10		< 5		COc1ncc(C(N)=O)cc1NCC#Cc1nc2c(N[C@@H]3CCN(C)C[C@@H]3F)cccn2c1SC(F)(F)F [Example 140]	< 0.75
80 to 90	< 0.75	< 0.01	< 0.75	≥ 10	≥ 10	≥ 10		CNC(=O)c1cnc(OC)c(NCC#Cc2nc3c(N[C@@H]4CCN(C)C[C@@H]4F)cccn3c2SC(F)(F)F)c1 [Example 141]	< 0.75
< 70	0.75 to 1.5	< 0.01	0.75 to 1.5	≥ 10	≥ 10	≥ 10		CNC(=O)c1cncc(NCC#Cc2nc3c(N[C@@H]4CCN(C)C[C@@H]4F)cccn3c2SC(F)(F)F)c1 [Example 142]	< 0.75
80 to 90	0.75 to 1.5		1.5 to 3	5 to 10	≥ 10	≥ 10	< 0.01	COc1ccc(C(=O)N2CCC2)cc1NCC#Cc1nc2c(N[C@@H]3CCN(C)C[C@@H]3F)cccn2c1SC(F)(F)F [Example 144]	0.75 to 1.5
80 to 90	< 0.75	< 0.01	< 0.75	≥ 10	≥ 10	≥ 10		COc1ccc(C(=O)NC(C)C)cc1NCC#Cc1nc2c(N[C@@H]3CCN(C)C[C@@H]3F)cccn2c1SC(F)(F)F [Example 145]	< 0.75
70 to 80	< 0.75	< 0.01	< 0.75	≥ 10	≥ 10	5 to 8		CNC(=O)c1ccc(NCC#Cc2nc3c(N[C@@H]4CN(C)CC[C@@H]4F)cccn3c2SC(F)(F)F)c(OC)c1 [Example 146]	< 0.75
> 90	< 0.75	< 0.01	< 0.75	≥ 10	≥ 10	8 to 10		CNC(=O)c1ccc(NCC#Cc2nc3c(N[C@H]4CN(C)CC[C@@H]4F)cccn3c2SC(F)(F)F)c(OC)c1 [Example 147]	< 0.75
70 to 80	< 0.75	< 0.01	< 0.75	≥ 10	≥ 10	≥ 10		CNC(=O)c1cc(NCC#Cc2nc3c(N[C@@H]4CCN(C)C[C@@H]4F)cccn3c2SC(F)(F)F)c(OC)cn1 [Example 148]	< 0.75
80 to 90	< 0.75		< 0.75	≥ 10	≥ 10	≥ 10	< 0.01	CNC(=O)c1cccc(NCC#Cc2nc3c(N[C@@H]4CCN(C)C[C@@H]4F)cccn3c2SC(F)(F)F)c1 [Example 149]	< 0.75
> 90	< 0.75	< 0.01	< 0.75	≥ 10		5 to 8		COc1cc2c(cc1NCC#Cc1nc3c(N[C@@H]4CCN(C)C[C@@H]4F)cccn3c1SC(F)(F)F)C(=O)NC2 [Example 151]	< 0.75
70 to 80	< 0.75	< 0.01	< 0.75	≥ 10	≥ 10	≥ 10		CNC(=O)c1ccc(OC)c(NCC#Cc2nc3c(N[C@@H]4CNC[C@@H]4F)cccn3c2SC(F)(F)F)c1 [Example 152]	< 0.75
80 to 90	< 0.75	< 0.01	< 0.75	≥ 10	≥ 10	≥ 10		CNC(=O)c1ccc(OC)c(NCC#Cc2nc3c(N[C@@H]4CN(C)C[C@@H]4F)cccn3c2SC(F)(F)F)c1 [Example 153]	< 0.75
